According to patent US4435385A, “N-Acyl-polypeptides and processes for the production thereof” (Sandoz Ltd., priority 1981, dated 1984):

Tested on: gastric secretion
Assay: TEST II: pentagastrin-stimulated gastric secretion in pylorus-ligated rats
Type: in vivo, rat
Details: male rats, i.m., 100 μg/kg pentagastrin s.c., 30 mins; dose for 50% inhibition vs untreated controls
Method: Male rats (220-280 g) are kept in the laboratory in individual cages for several days (14 hours light/day) with 48 hours fasting (but free access to water) immediately prior to the experiment. At the start of the experiment the pylorus is ligated under ether anaesthesia and 100 μg/kg pentagastrin are injected s.c. to stimulate gastric secretion. The test compounds are injected simultaneously i.m. 30 mins. later the animals are sacrificed, the volume of gastric juice measured and the acid concentration estimated (titration with thymol blue). The acid output is calculated and the percent inhibition estimated in relation to untreated controls.

C[C@H](N)C(=O)NCC(=O)N[C@H]1CSSC[C@@H](C(=O)O)NC(=O)[C@H](CO)NC(=O)[C@H]([C@@H](C)O)NC(=O)[C@H](Cc2ccccc2)NC(=O)[C@H]([C@@H](C)O)NC(=O)[C@H](CCCCN)NC(=O)[C@H](Cc2c[nH]c3ccccc23)NC(=O)[C@H](Cc2ccccc2)NC(=O)[C@H](Cc2ccccc2)NC(=O)[C@H](CC(N)=O)NC(=O)[C@H](CCCCN)NC1=O [somatostatin]
ID50 in TEST II for acid concentration: 0.035 mg/kg
